Bridge positions count the residues as written; N and C are the ends. Square brackets hold non-standard residues; d marks the D form. Peptide text beside a SMILES is read from it. Orn = NCCC[C@H](N)C(=O)O
How the values were obtained:
[1] = biological target: T1, human adrenomedullin-receptor (Homo sapiens, UniProt O60895+Q16602); test: Tests on a recombinant adrenomedullin-receptor reporter cell (CHO, aequorin luminescence); type: cell-based; conditions: Table 1, CHO cell line carrying the human adrenomedullin-receptor
T1 construct: expressed in transfected cells; host or cells: CHO (Chinese hamster ovary) recombinant reporter cell line with aequorin
Method: Activation of the receptor by ligands was measured by aequorin luminescence. Construction of the cell line and measurement procedure has been described in detail [Wunder F., Rebmann A., Geerts A, and Kalthof B., Mol Pharmacol, 73, 1235-1243 (2008)]. In brief: Cells were seeded on opaque 384-well microtiter plates at a density of 4000 cells/well and were grown for 24 h. After removal of culture medium, cells were loaded for 3 h with 0.6 μg/ml coelenterazine in Ca^2+-free Tyrode solution (130 mM sodium chloride, 5 mM potassium chloride, 20 mM HEPES (4-(2-hydroxyethyl)-1-piperazineethanesulfonic acid), 1 mM magnesium chloride, and 4.8 mM sodium hydrogen carbonate, pH 7.4) supplemented with 0.2 mM 3-Isobutyl-1-methylxanthine (IBMX) in a cell culture incubator. Examples were added for 6 min in calcium^2+-free Tyrode solution containing 0.1% bovine serum albumin. Immediately before adding calcium^2+ to a final concentration of 3 mM measurement of the aequorin luminescence was started by use of a suitable luminometer. Luminescence was measured for 60 s. In a typical experiment compounds were tested in a concentration range of 1×10^−13 to 3×10^−6 M.

[2] = biological target: T2, CLR fused to EYFP and RAMP2 fused to ECFP (Homo sapiens, UniProt O60895+Q16602); test: cAMP assay (CRE luciferase reporter, HEK-293 cells transiently co-transfected with CLR and RAMP2); type: cell-based; conditions: Table 2, cAMP assay; HEK-293, CLR/RAMP2, CRE luciferase, 3 h stimulation, normalized to [G^14]ADM(14-52)
T2 construct: EYFP; ECFP; expressed in transfected cells; host or cells: HEK-293 cells, transient co-transfection
How it was run: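 HEK-293 cells transiently co-transfected with CLR-EYFP, RAMP2-ECFP and a CRE-luc2P luciferase reporter were stimulated with ligands (eight concentrations, triplicate) for 3 h at 37 °C. Luminescence was corrected to 5 µM forskolin, normalized to [G^14]ADM(14-52) standard, and fitted by non-linear regression to dose-response curves.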

T1 sequence (Q16602 23-461): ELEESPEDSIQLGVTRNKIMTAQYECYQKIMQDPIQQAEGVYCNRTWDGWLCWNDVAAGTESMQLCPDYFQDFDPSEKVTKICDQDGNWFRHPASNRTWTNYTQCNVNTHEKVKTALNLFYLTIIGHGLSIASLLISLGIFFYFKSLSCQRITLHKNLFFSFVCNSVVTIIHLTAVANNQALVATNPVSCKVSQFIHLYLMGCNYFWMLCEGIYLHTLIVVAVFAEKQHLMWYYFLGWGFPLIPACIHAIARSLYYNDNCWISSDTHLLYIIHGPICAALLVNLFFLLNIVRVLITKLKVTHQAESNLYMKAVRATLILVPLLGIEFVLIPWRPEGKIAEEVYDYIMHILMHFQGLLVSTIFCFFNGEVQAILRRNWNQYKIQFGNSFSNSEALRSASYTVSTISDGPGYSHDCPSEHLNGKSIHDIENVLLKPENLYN
T1 sequence (O60895 43-175): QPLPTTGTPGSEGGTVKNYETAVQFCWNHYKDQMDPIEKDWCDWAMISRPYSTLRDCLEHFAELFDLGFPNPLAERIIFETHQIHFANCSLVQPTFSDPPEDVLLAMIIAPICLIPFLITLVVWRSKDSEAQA
T2 sequence (Q16602 23-461): as the sequence (Q16602 23-461) above
T2 sequence (O60895 43-175): as the sequence (O60895 43-175) above

| Structure (SMILES) | EC50 [1] [µM] | EC50 [2] [µM] |
| --- | --- | --- |
| CC[C@H](C)[C@H](NC(=O)[C@H](CCC(N)=O)NC(=O)[C@H](Cc1c[nH]cn1)NC(=O)[C@H](C)NC(=O)[C@H](CC(C)C)NC(=O)[C@H](CCCCN)NC(=O)[C@H](CCC(N)=O)NC(=O)[C@@H](NC(=O)[C@@H](NC(=O)[C@@H]1CCC(=O)NCCCC[C@H](NC(=O)CNC(=O)CN)C(=O)N[C@@H](CCCNC(=N)N)C(=O)N[C@@H](Cc2ccccc2)C(=O)NCC(=O)N[C@@H]([C@@H](C)O)C(=O)N1)[C@@H](C)O)C(C)C)C(=O)N[C@@H](Cc1ccc(O)cc1)C(=O)N[C@@H](CCC(N)=O)C(=O)N[C@@H](Cc1ccccc1)C(=O)N[C@H](C(=O)N[C@@H](CC(=O)O)C(=O)N[C@@H](CCCCN)C(=O)N[C@@H](CC(=O)O)C(=O)N[C@@H](CCCCN)C(=O)N[C@@H](CC(=O)O)C(=O)N[C@@H](CC(N)=O)C(=O)N[C@H](C(=O)N[C@@H](C)C(=O)N1CCC[C@H]1C(=O)N[C@@H](CCCNC(=N)N)C(=O)N[C@@H](CO)C(=O)N[C@@H](CCCCN)C(=O)N[C@H](C(=O)N[C@@H](CO)C(=O)N1CCC[C@H]1C(=O)N[C@@H](CCC(N)=O)C(=O)NCC(=O)N[C@@H](Cc1ccc(O)cc1)C(N)=O)[C@@H](C)CC)C(C)C)[C@@H](C)O [Example 2, ((2S,5S,11S,14S,23S)-23-(2-(2-aminoacetamido)acetamido)-5-benzyl-2-(3-guanidinopropyl)-11-((R)-1-hydroxyethyl)-3,6,9,12,17,24-hexaoxo-1,4,7,10,13,18-hexaazacyclotetracosane-14-carbonyl)-L-threonyl-ADM(22-52)] (H-GGKRFGTETVQKLAHQIYQFTDKDKDNVAPRSKISPQGY-NH2; lactam 3-8) | > 1 | > 1 |
| CC[C@H](C)[C@H](NC(=O)[C@H](CCC(N)=O)NC(=O)[C@H](Cc1c[nH]cn1)NC(=O)[C@H](C)NC(=O)[C@H](CC(C)C)NC(=O)[C@H](CCCCN)NC(=O)[C@H](CCC(N)=O)NC(=O)[C@@H](NC(=O)[C@@H](NC(=O)[C@@H]1CCCC[C@H](NC(=O)CNC(=O)CN)C(=O)N[C@@H](CCCNC(=N)N)C(=O)N[C@@H](Cc2ccccc2)C(=O)NCC(=O)N[C@@H]([C@@H](C)O)C(=O)N1)[C@@H](C)O)C(C)C)C(=O)N[C@@H](Cc1ccc(O)cc1)C(=O)N[C@@H](CCC(N)=O)C(=O)N[C@@H](Cc1ccccc1)C(=O)N[C@H](C(=O)N[C@@H](CC(=O)O)C(=O)N[C@@H](CCCCN)C(=O)N[C@@H](CC(=O)O)C(=O)N[C@@H](CCCCN)C(=O)N[C@@H](CC(=O)O)C(=O)N[C@@H](CC(N)=O)C(=O)N[C@H](C(=O)N[C@@H](C)C(=O)N1CCC[C@H]1C(=O)N[C@@H](CCCNC(=N)N)C(=O)N[C@@H](CO)C(=O)N[C@@H](CCCCN)C(=O)N[C@H](C(=O)N[C@@H](CO)C(=O)N1CCC[C@H]1C(=O)N[C@@H](CCC(N)=O)C(=O)NCC(=O)N[C@@H](Cc1ccc(O)cc1)C(N)=O)[C@@H](C)CC)C(C)C)[C@@H](C)O [Example 17, ((2S,5S,11S,14S,19S)-19-(2-(2-aminoacetamido)acetamido)-5-benzyl-2-(3-guanidinopropyl)-11-((R)-1-hydroxyethyl)-3,6,9,12,20-pentaoxo-1,4,7,10,13-pentaazacycloicosane-14-carbonyl)-L threonyl-ADM(22-52)] | > 1 | > 1 |
| CC[C@H](C)[C@H](NC(=O)[C@H](CCC(N)=O)NC(=O)[C@H](Cc1c[nH]cn1)NC(=O)[C@H](C)NC(=O)[C@H](CC(C)C)NC(=O)[C@H](CCCCN)NC(=O)[C@H](CCC(N)=O)NC(=O)[C@@H](NC(=O)[C@@H](NC(=O)[C@@H]1CC(=O)NCCC[C@H](NC(=O)CNC(=O)CN)C(=O)N[C@@H](CCCNC(=N)N)C(=O)N[C@@H](Cc2ccccc2)C(=O)NCC(=O)N[C@@H]([C@@H](C)O)C(=O)N1)[C@@H](C)O)C(C)C)C(=O)N[C@@H](Cc1ccc(O)cc1)C(=O)N[C@@H](CCC(N)=O)C(=O)N[C@@H](Cc1ccccc1)C(=O)N[C@H](C(=O)N[C@@H](CC(=O)O)C(=O)N[C@@H](CCCCN)C(=O)N[C@@H](CC(=O)O)C(=O)N[C@@H](CCCCN)C(=O)N[C@@H](CC(=O)O)C(=O)N[C@@H](CC(N)=O)C(=O)N[C@H](C(=O)N[C@@H](C)C(=O)N1CCC[C@H]1C(=O)N[C@@H](CCCNC(=N)N)C(=O)N[C@@H](CO)C(=O)N[C@@H](CCCCN)C(=O)N[C@H](C(=O)N[C@@H](CO)C(=O)N1CCC[C@H]1C(=O)N[C@@H](CCC(N)=O)C(=O)NCC(=O)N[C@@H](Cc1ccc(O)cc1)C(N)=O)[C@@H](C)CC)C(C)C)[C@@H](C)O [Example 9, ((2S,5S,11S,14S,21S)-21-(2-(2-aminoacetamido)acetamido)-5-benzyl-2-(3-guanidinopropyl)-11-((R)-1-hydroxyethyl)-3,6,9,12,16,22-hexaoxo-1,4,7,10,13,17-hexaazacyclodocosane-14-carbonyl)-L-threonyl-ADM(22-52)] (H-GG[Orn]RFGTDTVQKLAHQIYQFTDKDKDNVAPRSKISPQGY-NH2; lactam 3-8) | > 1 | > 1 |

Second part, the molecule after the results:

| EC50 [1] [µM] | EC50 [2] [µM] | Structure (SMILES) |
| --- | --- | --- |
| > 1 | 0.021 | CC[C@H](C)[C@H](NC(=O)[C@H](CCC(N)=O)NC(=O)[C@H](Cc1c[nH]cn1)NC(=O)[C@H](C)NC(=O)[C@H](CC(C)C)NC(=O)[C@H](CCCCN)NC(=O)[C@H](CCC(N)=O)NC(=O)[C@@H](NC(=O)[C@@H](NC(=O)[C@@H]1CCCNC(=O)CC[C@H](NC(=O)CNC(=O)CN)C(=O)N[C@@H](CCCNC(=N)N)C(=O)N[C@@H](Cc2ccccc2)C(=O)NCC(=O)N[C@@H]([C@@H](C)O)C(=O)N1)[C@@H](C)O)C(C)C)C(=O)N[C@@H](Cc1ccc(O)cc1)C(=O)N[C@@H](CCC(N)=O)C(=O)N[C@@H](Cc1ccccc1)C(=O)N[C@H](C(=O)N[C@@H](CC(=O)O)C(=O)N[C@@H](CCCCN)C(=O)N[C@@H](CC(=O)O)C(=O)N[C@@H](CCCCN)C(=O)N[C@@H](CC(=O)O)C(=O)N[C@@H](CC(N)=O)C(=O)N[C@H](C(=O)N[C@@H](C)C(=O)N1CCC[C@H]1C(=O)N[C@@H](CCCNC(=N)N)C(=O)N[C@@H](CO)C(=O)N[C@@H](CCCCN)C(=O)N[C@H](C(=O)N[C@@H](CO)C(=O)N1CCC[C@H]1C(=O)N[C@@H](CCC(N)=O)C(=O)NCC(=O)N[C@@H](Cc1ccc(O)cc1)C(N)=O)[C@@H](C)CC)C(C)C)[C@@H](C)O [Example 19, ((2S,5S,11S,14S,22S)-22-(2-(2-aminoacetamido)acetamido)-5-benzyl-2-(3-guanidinopropyl)-11-((R)-1-hydroxyethyl)-3,6,9,12,19,23-hexaoxo-1,4,7,10,13,18-hexaazacyclotricosane-14-carbonyl)-L-threonyl-ADM(22-52)] (H-GGERFGT[Orn]TVQKLAHQIYQFTDKDKDNVAPRSKISPQGY-NH2; lactam 3-8) |
| 0.015 | 0.0023 | CC[C@H](C)[C@H](NC(=O)[C@H](CCC(N)=O)NC(=O)[C@H](Cc1c[nH]cn1)NC(=O)[C@H](C)NC(=O)[C@H](CC(C)C)NC(=O)[C@H](CCCCN)NC(=O)[C@H](CCC(N)=O)NC(=O)[C@@H](NC(=O)[C@@H](NC(=O)[C@@H]1CCCCNC(=O)C[C@H](NC(=O)CNC(=O)CN)C(=O)N[C@@H](CCCNC(=N)N)C(=O)N[C@@H](Cc2ccccc2)C(=O)NCC(=O)N[C@@H]([C@@H](C)O)C(=O)N1)[C@@H](C)O)C(C)C)C(=O)N[C@@H](Cc1ccc(O)cc1)C(=O)N[C@@H](CCC(N)=O)C(=O)N[C@@H](Cc1ccccc1)C(=O)N[C@H](C(=O)N[C@@H](CC(=O)O)C(=O)N[C@@H](CCCCN)C(=O)N[C@@H](CC(=O)O)C(=O)N[C@@H](CCCCN)C(=O)N[C@@H](CC(=O)O)C(=O)N[C@@H](CC(N)=O)C(=O)N[C@H](C(=O)N[C@@H](C)C(=O)N1CCC[C@H]1C(=O)N[C@@H](CCCNC(=N)N)C(=O)N[C@@H](CO)C(=O)N[C@@H](CCCCN)C(=O)N[C@H](C(=O)N[C@@H](CO)C(=O)N1CCC[C@H]1C(=O)N[C@@H](CCC(N)=O)C(=O)NCC(=O)N[C@@H](Cc1ccc(O)cc1)C(N)=O)[C@@H](C)CC)C(C)C)[C@@H](C)O [Example 22, ((3S,9S,12S,15S,23S)-15-(2-(2-aminoacetamido)acetamido)-9-benzyl-12-(3-guanidinopropyl)-3-((R)-1-hydroxyethyl)-2,5,8,11,14,17-hexaoxo-1,4,7,10,13,18-hexaazacyclotricosane-23-carbonyl)-L-threonyl-ADM(22-52)] (H-GGDRFGTKTVQKLAHQIYQFTDKDKDNVAPRSKISPQGY-NH2; lactam 3-8) |

Reference: US20180022780A1, “STABILIZATION ADRENOMEDULLIN DERIVATIVES AND USE THEREOF” (priority 2014, published 2018)
